Source: patent publication US12528786B2, “Plasma kallikrein inhibitors” (Merck Sharp & Dohme LLC, priority 2020, dated 2026)

These compounds were tested against T1, Human plasma kallikrein (Homo sapiens, UniProt P03952) (assay: Kallikrein Assay (fluorogenic substrate hydrolysis, AFC release)). Settings: purified Human plasma kallikrein 0.5 nM; substrate Acetyl-K—P—R-AFC 100 mM; 50 mM HEPES pH 7.4.
T1 construct: yields a heavy chain (371 amino acids) and a light chain (248 amino acids); purchased Enzyme Research Laboratories
T1 sequence (P03952 391-638 limits assumed): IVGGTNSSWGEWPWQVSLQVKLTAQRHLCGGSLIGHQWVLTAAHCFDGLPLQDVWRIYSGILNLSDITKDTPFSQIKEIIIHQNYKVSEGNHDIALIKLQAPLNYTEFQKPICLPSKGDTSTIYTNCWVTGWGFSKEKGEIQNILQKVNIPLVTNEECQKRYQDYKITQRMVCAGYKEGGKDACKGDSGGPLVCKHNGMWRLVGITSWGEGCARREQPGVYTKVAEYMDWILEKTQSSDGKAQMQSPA
T1 sequence (P03952 20-390 partner limits assumed): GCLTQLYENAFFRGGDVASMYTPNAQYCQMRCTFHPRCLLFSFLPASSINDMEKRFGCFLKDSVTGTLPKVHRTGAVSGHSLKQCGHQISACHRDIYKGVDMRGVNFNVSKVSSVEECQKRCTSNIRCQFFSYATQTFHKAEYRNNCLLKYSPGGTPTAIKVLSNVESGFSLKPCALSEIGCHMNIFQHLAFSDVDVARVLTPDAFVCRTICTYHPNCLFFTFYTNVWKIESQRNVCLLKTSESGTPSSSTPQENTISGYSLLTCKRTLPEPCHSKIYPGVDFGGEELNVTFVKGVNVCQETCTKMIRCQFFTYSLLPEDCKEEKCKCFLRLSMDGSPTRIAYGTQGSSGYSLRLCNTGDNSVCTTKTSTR
Type: biochemical
Outline: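 Purified human plasma kallikrein (0.5 nM final) with Acetyl-K-P-R-AFC substrate (final ≤0.2 Km) in 50 mM HEPES pH 7.4, 150 mM NaCl, 5 mM CaCl2, 0.1% PEG 8000, after enzyme–inhibitor equilibration; room temperature or 37° C. AFC fluorescence (405 Ex/510 Em nm) under linear conditions; IC50 by four-parameter fit, Ki via Cheng-Prusoff.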

Row | Compound | IC50 [nM]
1 | N#Cc1ccc(Cl)cc1[C@H]1C[C@@H](NC(=O)c2cnn(Cc3cnc(N4C[C@@H]5C[C@@H]5C4=O)nc3)c2)C1 (stereo in doubt) [Example 1, N-((cis)-3-(5-chloro-2-cyanophenyl)cyclobutyl)-1-((2-((1S,5R)-2-oxo-3-azabicyclo[3.1.0]hexan-3-yl)pyrimidin-5-yl)methyl)-1H-pyrazole-4-carboxamide] | 8.6
2 | Cc1cc(N2C[C@H]3C[C@H]3C2=O)cnc1C(C)n1cc(C(=O)N[C@H]2C[C@@H](c3cc(Cl)ccc3C#N)C2)cn1 (single isomer, unassigned) [Example 24, N-((cis)-3-(5-chloro-2-cyanophenyl)cyclobutyl)-1-((R or S)-1-(3-methyl-5-((1R,5S)-2-oxo-3-azabicyclo[3.1.0]hexan-3-yl)pyridin-2-yl)ethyl)-1H-pyrazole-4-carboxamide] | 5.1
3 | Cc1cc(N2C[C@H]3C[C@H]3C2=O)cnc1C(C)n1cc(C(=O)N[C@H]2C[C@@H](c3cc(Cl)ccc3C#N)C2)nn1 (single isomer, unassigned) [Example 90, N-((cis)-3-(5-chloro-2-cyanophenyl)cyclobutyl)-1-((R or S)-1-(3-methyl-5-((1R,5S)-2-oxo-3-azabicyclo[3.1.0]hexan-3-yl)pyridin-2-yl)ethyl)-1H-1,2,3-triazole-4-carboxamide] | 153
4 | COc1cc(N2C[C@H]3C[C@H]3C2=O)ncc1C(C)n1cc(C(=O)N[C@H]2C[C@@H](c3cc(Cl)ccc3C#N)C2)nn1 (single isomer, unassigned) [Example 88, N-((cis)-3-(5-chloro-2-cyanophenyl)cyclobutyl)-1-((R or S)-1-(4-methoxy-6-((1R,5S)-2-oxo-3-azabicyclo[3.1.0]hexan-3-yl)pyridin-3-yl)ethyl)-1H-1,2,3-triazole-4-carboxamide] | 11.3
5 | Cc1cc(N2C[C@H]3C[C@H]3C2=O)ncc1[C@H](C)c1cc(C(=O)N[C@H]2C[C@@H](c3cc(Cl)ccc3C#N)C2)n(C)n1 [Example 173, N-((cis)-3-(5-chloro-2-cyanophenyl)cyclobutyl)-1-methyl-3-((S)-1-(4-methyl-6-((1R,5S)-2-oxo-3-azabicyclo[3.1.0]hexan-3-yl)pyridin-3-yl)ethyl)-1H-pyrazole-5-carboxamide] | 3.2
6 | Cc1cc(N2C[C@H]3C[C@H]3C2=O)cnc1C(C)n1cc(C(=O)N[C@H]2C[C@@H](c3cc(Cl)ccc3C#N)C2)cn1 (single isomer, unassigned) [Example 25, N-((cis)-3-(5-chloro-2-cyanophenyl)cyclobutyl)-1-((S or R)-1-(3-methyl-5-((1R,5S)-2-oxo-3-azabicyclo[3.1.0]hexan-3-yl)pyridin-2-yl)ethyl)-1H-pyrazole-4-carboxamide] | 25.3
7 | Cc1cc(N2C[C@H]3C[C@H]3C2=O)ncc1C(C)n1cc(C(=O)N[C@H]2C[C@@H](c3cc(Cl)ccc3C(F)F)C2)nn1 (single isomer, unassigned) [Example 72, N-((cis)-3-(5-chloro-2-(difluoromethyl)phenyl)cyclobutyl)-1-((S or R)-1-(4-methyl-6-((1R,5S)-2-oxo-3-azabicyclo[3.1.0]hexan-3-yl)pyridin-3-yl)ethyl)-1H-1,2,3-triazole-4-carboxamide] | 10000
8 | Cc1ccc(C#N)c([C@H]2C[C@@H](NC(=O)c3cn(C(C)c4cnc(N5C[C@H]6C[C@H]6C5=O)c(C)c4)nn3)C2)c1 (single isomer, unassigned) [Example 133, N-((cis)-3-(2-cyano-5-methylphenyl)cyclobutyl)-1-((R or S)-1-(5-methyl-6-((1R,5S)-2-oxo-3-azabicyclo[3.1.0]hexan-3-yl)pyridin-3-yl)ethyl)-1H-1,2,3-triazole-4-carboxamide] | 2.5
9 | Cc1cc(N2C[C@H]3C[C@H]3C2=O)ncc1C(C)n1cc(C(=O)N[C@H]2C[C@@H](c3cc(Cl)ccc3C(F)F)C2)nn1 (single isomer, unassigned) [Example 71, N-((cis)-3-(5-chloro-2-(difluoromethyl)phenyl)cyclobutyl)-1-((R or S)-1-(4-methyl-6-((1R,5S)-2-oxo-3-azabicyclo[3.1.0]hexan-3-yl)pyridin-3-yl)ethyl)-1H-1,2,3-triazole-4-carboxamide] | 12.7
10 | Cc1ccc(C#N)c([C@H]2C[C@@H](NC(=O)c3cn(C(C)c4nnc(N5C[C@H]6C[C@H]6C5=O)c(C)c4C)nn3)C2)n1 (single isomer, unassigned) [Example 127, N-((cis)-3-(3-cyano-6-methylpyridin-2-yl)cyclobutyl)-1-((R or S)-1-(4,5-dimethyl-6-((1R,5S)-2-oxo-3-azabicyclo[3.1.0]hexan-3-yl)pyridazin-3-yl)ethyl)-1H-1,2,3-triazole-4-carboxamide] | 702
11 | Cc1c(C(C)n2cc(C(=O)NC3CC(c4cccc(Cl)c4)C3O)nn2)nnc(N2C[C@H]3C[C@H]3C2=O)c1C (single isomer, unassigned) [Example 130, N-((1S,2S,3S or 1R,2R,3R))-3-(3-chlorophenyl)-2-hydroxycyclobutyl)-1-((R or S)-1-(4,5-dimethyl-6-((1R,5S)-2-oxo-3-azabicyclo[3.1.0]hexan-3-yl)pyridazin-3-yl)ethyl)-1H-1,2,3-triazole-4-carboxamide] | 8.5
12 | Cc1ccc(C#N)c([C@H]2C[C@@H](NC(=O)c3cn(C(C)c4cnc(N5C[C@H]6C[C@H]6C5=O)c(F)c4C)nn3)C2)n1 (single isomer, unassigned) [Example 135, N-((cis)-3-(3-cyano-6-methylpyridin-2-yl)cyclobutyl)-1-((R or S)-1-(5-fluoro-4-methyl-6-((1R,5S)-2-oxo-3-azabicyclo[3.1.0]hexan-3-yl)pyridin-3-yl)ethyl)-1H-1,2,3-triazole-4-carboxamide] | 80
13 | Cc1c(C(C)n2cc(C(=O)NC3CC(c4cccc(Cl)c4)C3O)nn2)cnc(N2C[C@H]3C[C@H]3C2=O)c1F (single isomer, unassigned) [Example 125, N-((1R,2R,3R or 1S,2S,3S)-3-(3-chlorophenyl)-2-hydroxycyclobutyl)-1-((S or R)-1-(5-fluoro-4-methyl-6-((1R,5S)-2-oxo-3-azabicyclo[3.1.0]hexan-3-yl)pyridin-3-yl)ethyl)-1H-1,2,3-triazole-4-carboxamide] | 130
14 | Cc1cc(N2C[C@H]3C[C@H]3C2=O)nnc1C(C)n1cc(C(=O)N[C@H]2C[C@@H](c3cc(Cl)ccc3C#N)C2)nn1 (single isomer, unassigned) [Example 118, N-((cis)-3-(5-chloro-2-cyanophenyl)cyclobutyl)-1-((S or R)-1-(4-methyl-6-((1R,5S)-2-oxo-3-azabicyclo[3.1.0]hexan-3-yl)pyridazin-3-yl)ethyl)-1H-1,2,3-triazole-4-carboxamide] | 4.7

The next compounds have a lower IC50 than those just listed; values first:

Row | IC50 [nM] | Compound
15 | 1.5 | CC(c1cnc(N2C[C@H]3C[C@H]3C2=O)c(F)c1)n1cc(C(=O)N[C@H]2C[C@@H](c3cc(Cl)ccc3C#N)C2)cn1 (single isomer, unassigned) [Example 22, N-((cis)-3-(5-chloro-2-cyanophenyl)cyclobutyl)-1-((S or R)-1-(5-fluoro-6-((1R,5S)-2-oxo-3-azabicyclo[3.1.0]hexan-3-yl)pyridin-3-yl)ethyl)-1H-pyrazole-4-carboxamide]
16 | 1.5 | Cc1cc(N2C[C@H]3C[C@H]3C2=O)cnc1C(C)n1cc(C(=O)N[C@H]2C[C@@H](c3cc(Cl)ccc3C#N)C2)nn1 (single isomer, unassigned) [Example 91, N-((cis)-3-(5-chloro-2-cyanophenyl)cyclobutyl)-1-((S or R)-1-(3-methyl-5-((1R,5S)-2-oxo-3-azabicyclo[3.1.0]hexan-3-yl)pyridin-2-yl)ethyl)-1H-1,2,3-triazole-4-carboxamide]
17 | 1 | Cc1c(N2C[C@H]3C[C@H]3C2=O)ncc([C@@H](C)n2cc(C(=O)NC3CC(c4cc(Cl)ccc4C#N)C3)cn2)c1F (single isomer, unassigned) [Example 165]
18 | 0.8 | Cc1cc(N2C[C@H]3C[C@H]3C2=O)ncc1[C@@H](C)n1cc(C(=O)NC2CC(c3cc(Cl)ccc3C#N)C2)c([C@H](C)O)n1 (single isomer, unassigned) [Example 169]
19 | 0.7 | Cc1cc([C@@](C)(O)c2cc(C(=O)N[C@H]3C[C@@H](c4cc(Cl)ccc4C#N)C3)no2)cnc1N1C[C@H]2C[C@H]2C1=O (single isomer, unassigned) [Example 156]
20 | 0.5 | Cc1c(C(C)n2cc(C(=O)N[C@H]3C[C@@H](c4cc(Cl)ccc4C#N)C3)nn2)cnc(N2C[C@H]3C[C@H]3C2=O)c1C (single isomer, unassigned) [Example 87, N-((cis)-3-(5-chloro-2-cyanophenyl)cyclobutyl)-1-((S or R)-1-(4,5-dimethyl-6-((1R,5S)-2-oxo-3-azabicyclo[3.1.0]hexan-3-yl)pyridin-3-yl)ethyl)-1H-1,2,3-triazole-4-carboxamide]
21 | 0.2 | Cc1c([C@H](C)n2cc(C(=O)N[C@H]3C[C@@](C)(c4cc(Cl)ccc4C#N)C3)nn2)cnc(N2C[C@H]3C[C@H]3C2=O)c1C [Example 141, N-((cis)-3-(5-chloro-2-cyanophenyl)-3-methylcyclobutyl)-1-((S)-1-(4,5-dimethyl-6-((1R,5S)-2-oxo-3-azabicyclo[3.1.0]hexan-3-yl)pyridin-3-yl)ethyl)-1H-1,2,3-triazole-4-carboxamide]
22 | 0.2 | Cc1ccc(C#N)c([C@]2(C)C[C@H](NC(=O)c3cn([C@@H](C)c4cnc(N5C[C@H]6C[C@H]6C5=O)c(C)c4C)nn3)C2)c1 [Example 143, N-((cis)-3-(2-cyano-5-methylphenyl)-3-methylcyclobutyl)-1-((S)-1-(4,5-dimethyl-6-((1R,5S)-2-oxo-3-azabicyclo[3.1.0]hexan-3-yl)pyridin-3-yl)ethyl)-1H-1,2,3-triazole-4-carboxamide]
